In the kinase profiling compilation of Christmann-Franck et al. (2016):

Experiments:
Experiment in all cases: KINOMEscan competition binding
Conditions in all cases: compound 10.0 µM
CDK16 (human) = CDK16 (human) (UniProt Q00536)
LYN (human) = LYN (human) (UniProt P07948)
[1] = system: EGFR (human), P00533 [752-759 del]
RPS6KA5 KD1 (human) = RPS6KA5 KD1 (human) (UniProt O75582)
ICK (human) = ICK (human) (UniProt Q9UPZ9)
MTOR (human) = MTOR (human) (UniProt P42345)
PRKCH (human) = PRKCH (human) (UniProt P24723)
PAK1 (human) = PAK1 (human) (UniProt Q13153)
CAMKK2 (human) = CAMKK2 (human) (UniProt Q96RR4)
PAK7 (human) = PAK7 (human) (UniProt Q9P286)
AKT3 (human) = AKT3 (human) (UniProt Q9Y243)
AKT3 (human), sequence (Q9Y243 whole entry, looked up): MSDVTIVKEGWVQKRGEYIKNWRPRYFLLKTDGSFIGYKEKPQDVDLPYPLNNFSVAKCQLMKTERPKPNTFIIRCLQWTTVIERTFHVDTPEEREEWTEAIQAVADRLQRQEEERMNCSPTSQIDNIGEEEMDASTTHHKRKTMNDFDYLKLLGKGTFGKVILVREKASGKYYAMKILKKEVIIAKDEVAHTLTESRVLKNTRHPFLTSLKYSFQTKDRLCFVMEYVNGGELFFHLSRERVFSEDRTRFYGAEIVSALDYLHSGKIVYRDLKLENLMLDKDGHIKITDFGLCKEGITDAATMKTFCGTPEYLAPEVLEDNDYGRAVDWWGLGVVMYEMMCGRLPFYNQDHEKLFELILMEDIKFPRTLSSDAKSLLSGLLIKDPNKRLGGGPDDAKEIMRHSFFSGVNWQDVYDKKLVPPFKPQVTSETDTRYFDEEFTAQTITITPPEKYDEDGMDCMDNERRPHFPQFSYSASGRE

PAK3 (human) = PAK3 (human) (UniProt O75914)
NLK (human) = NLK (human) (UniProt Q9UBE8)
RPS6KA3 KD1 (human) = RPS6KA3 KD1 (human) (UniProt P51812)
ACVR1 (human) = ACVR1 (human) (UniProt Q04771)
CDC42BPG (human) = CDC42BPG (human) (UniProt Q6DT37)
EGFR (human) = EGFR (human) (UniProt P00533)
RPS6KA2 KD2 (human) = RPS6KA2 KD2 (human) (UniProt Q15349)
PRKACB (human) = PRKACB (human) (UniProt P22694)
IRAK1 (human) = IRAK1 (human) (UniProt P51617)
RPS6KA4 KD1 (human) = RPS6KA4 KD1 (human) (UniProt O75676)
CSK (human) = CSK (human) (UniProt P41240)
CSK (human), sequence (P41240 whole entry, looked up): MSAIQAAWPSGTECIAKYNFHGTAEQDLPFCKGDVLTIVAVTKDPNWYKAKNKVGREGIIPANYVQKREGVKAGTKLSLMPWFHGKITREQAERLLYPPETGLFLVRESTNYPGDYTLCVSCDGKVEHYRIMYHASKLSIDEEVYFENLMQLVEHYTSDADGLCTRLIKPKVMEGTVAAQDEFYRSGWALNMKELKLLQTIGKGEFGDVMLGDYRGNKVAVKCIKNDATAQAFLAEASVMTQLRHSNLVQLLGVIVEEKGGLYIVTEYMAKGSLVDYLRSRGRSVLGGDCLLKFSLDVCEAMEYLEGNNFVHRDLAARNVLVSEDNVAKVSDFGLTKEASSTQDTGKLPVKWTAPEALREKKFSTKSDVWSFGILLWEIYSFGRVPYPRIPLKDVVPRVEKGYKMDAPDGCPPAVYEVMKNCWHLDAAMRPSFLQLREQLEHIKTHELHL

[2] = biological target: TYK2 JH1 catalytic (human) (UniProt P29597)
ROS1 (human) = ROS1 (human) (UniProt P08922)
CHUK (human) = CHUK (human) (UniProt O15111)
CHUK (human), sequence (O15111 whole entry, looked up): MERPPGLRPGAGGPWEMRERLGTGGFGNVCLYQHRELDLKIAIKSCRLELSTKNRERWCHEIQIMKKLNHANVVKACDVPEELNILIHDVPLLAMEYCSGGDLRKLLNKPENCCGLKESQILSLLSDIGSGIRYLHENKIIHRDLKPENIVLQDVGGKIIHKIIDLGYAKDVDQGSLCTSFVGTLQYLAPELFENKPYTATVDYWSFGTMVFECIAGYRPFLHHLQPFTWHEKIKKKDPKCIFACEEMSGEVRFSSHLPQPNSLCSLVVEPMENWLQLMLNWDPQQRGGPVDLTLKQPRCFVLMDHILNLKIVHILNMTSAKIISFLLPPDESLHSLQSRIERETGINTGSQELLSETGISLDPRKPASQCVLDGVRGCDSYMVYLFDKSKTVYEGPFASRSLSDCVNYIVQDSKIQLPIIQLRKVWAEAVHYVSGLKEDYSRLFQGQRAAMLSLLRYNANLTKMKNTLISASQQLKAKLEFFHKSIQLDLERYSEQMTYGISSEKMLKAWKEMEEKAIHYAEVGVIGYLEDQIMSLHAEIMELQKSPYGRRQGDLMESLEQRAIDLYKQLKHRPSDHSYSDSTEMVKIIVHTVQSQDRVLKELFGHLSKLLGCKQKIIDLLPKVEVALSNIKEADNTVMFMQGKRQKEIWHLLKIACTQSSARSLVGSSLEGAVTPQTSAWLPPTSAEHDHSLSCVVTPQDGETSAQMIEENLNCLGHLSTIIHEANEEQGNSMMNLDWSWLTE

PHKG2 (human) = PHKG2 (human) (UniProt P15735)
RIOK2 (human) = RIOK2 (human) (UniProt Q9BVS4)
MET (human) = MET (human) (UniProt P08581)
MET (human), sequence (P08581 whole entry, looked up): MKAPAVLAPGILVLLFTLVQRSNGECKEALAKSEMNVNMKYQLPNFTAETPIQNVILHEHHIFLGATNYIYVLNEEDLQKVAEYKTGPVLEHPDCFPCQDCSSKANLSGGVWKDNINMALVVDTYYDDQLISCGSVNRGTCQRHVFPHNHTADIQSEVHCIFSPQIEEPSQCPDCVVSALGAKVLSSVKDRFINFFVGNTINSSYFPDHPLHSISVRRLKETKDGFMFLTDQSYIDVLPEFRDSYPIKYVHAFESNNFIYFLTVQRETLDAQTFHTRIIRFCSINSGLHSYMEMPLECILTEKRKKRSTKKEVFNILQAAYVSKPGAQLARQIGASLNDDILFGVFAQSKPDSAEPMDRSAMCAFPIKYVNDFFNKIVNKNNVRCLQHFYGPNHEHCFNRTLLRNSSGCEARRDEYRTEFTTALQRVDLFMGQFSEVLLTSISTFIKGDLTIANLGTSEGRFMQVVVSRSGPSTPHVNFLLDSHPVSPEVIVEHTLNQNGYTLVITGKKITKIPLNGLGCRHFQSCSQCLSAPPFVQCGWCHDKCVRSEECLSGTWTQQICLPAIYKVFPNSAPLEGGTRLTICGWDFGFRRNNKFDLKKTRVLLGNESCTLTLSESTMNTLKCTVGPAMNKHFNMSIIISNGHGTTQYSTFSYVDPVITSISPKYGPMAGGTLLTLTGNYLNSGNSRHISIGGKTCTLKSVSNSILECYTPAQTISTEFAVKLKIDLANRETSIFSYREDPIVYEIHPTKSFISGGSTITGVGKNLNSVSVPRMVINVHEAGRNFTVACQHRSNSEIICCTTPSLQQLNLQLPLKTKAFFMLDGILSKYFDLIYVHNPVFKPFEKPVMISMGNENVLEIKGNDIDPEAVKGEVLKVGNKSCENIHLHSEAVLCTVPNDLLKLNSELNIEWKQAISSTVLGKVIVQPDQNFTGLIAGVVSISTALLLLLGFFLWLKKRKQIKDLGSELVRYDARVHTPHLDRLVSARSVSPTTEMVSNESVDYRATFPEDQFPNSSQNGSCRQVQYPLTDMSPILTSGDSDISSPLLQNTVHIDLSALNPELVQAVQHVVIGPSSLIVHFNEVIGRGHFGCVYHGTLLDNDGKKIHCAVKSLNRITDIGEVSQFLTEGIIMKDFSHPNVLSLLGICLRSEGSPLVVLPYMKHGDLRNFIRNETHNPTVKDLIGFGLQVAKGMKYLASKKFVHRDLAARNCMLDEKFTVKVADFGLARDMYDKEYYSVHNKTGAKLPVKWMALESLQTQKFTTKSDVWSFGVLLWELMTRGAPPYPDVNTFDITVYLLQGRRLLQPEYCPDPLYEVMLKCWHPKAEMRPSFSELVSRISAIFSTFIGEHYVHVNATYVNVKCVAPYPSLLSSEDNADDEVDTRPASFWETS

ULK3 (human) = ULK3 (human) (UniProt Q6PHR2)
EPHA7 (human) = EPHA7 (human) (UniProt Q15375)
PLK4 (human) = PLK4 (human) (UniProt O00444)
PIP4K2B (human) = PIP4K2B (human) (UniProt P78356)
WEE2 (human) = WEE2 (human) (UniProt P0C1S8)
TNIK (human) = TNIK (human) (UniProt Q9UKE5)
TBK1 (human) = TBK1 (human) (UniProt Q9UHD2)
TBK1 (human), sequence (Q9UHD2 whole entry, looked up): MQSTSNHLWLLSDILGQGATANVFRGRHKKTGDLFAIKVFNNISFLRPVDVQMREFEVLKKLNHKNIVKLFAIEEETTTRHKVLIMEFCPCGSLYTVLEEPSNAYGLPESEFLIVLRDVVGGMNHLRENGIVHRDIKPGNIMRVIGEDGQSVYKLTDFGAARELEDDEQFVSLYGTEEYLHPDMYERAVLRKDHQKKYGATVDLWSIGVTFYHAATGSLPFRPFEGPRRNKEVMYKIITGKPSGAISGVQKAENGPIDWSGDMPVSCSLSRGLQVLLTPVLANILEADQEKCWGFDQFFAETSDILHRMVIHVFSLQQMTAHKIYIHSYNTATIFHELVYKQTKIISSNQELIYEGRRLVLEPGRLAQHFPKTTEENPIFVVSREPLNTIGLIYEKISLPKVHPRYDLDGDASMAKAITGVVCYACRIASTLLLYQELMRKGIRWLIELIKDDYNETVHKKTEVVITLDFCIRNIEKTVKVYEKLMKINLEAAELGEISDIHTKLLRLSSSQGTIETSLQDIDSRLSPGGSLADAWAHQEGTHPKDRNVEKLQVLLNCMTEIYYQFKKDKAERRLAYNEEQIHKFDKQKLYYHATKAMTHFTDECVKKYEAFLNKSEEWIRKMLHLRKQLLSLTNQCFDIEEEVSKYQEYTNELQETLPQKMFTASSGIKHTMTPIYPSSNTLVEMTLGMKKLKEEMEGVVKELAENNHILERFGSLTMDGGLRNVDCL

MAP2K5 (human) = MAP2K5 (human) (UniProt Q13163)
MAP2K5 (human), sequence (Q13163 whole entry, looked up): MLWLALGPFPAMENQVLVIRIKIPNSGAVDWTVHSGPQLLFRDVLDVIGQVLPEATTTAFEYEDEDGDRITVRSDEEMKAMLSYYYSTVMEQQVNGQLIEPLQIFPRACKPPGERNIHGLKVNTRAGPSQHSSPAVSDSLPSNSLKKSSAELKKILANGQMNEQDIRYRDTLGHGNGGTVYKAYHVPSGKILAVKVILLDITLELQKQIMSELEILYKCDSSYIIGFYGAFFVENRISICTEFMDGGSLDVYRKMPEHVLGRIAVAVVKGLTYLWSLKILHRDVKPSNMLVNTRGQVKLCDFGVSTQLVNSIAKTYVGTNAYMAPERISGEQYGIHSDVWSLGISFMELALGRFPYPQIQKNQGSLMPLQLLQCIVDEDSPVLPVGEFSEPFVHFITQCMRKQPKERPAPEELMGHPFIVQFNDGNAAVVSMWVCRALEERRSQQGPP

CSNK1G3 (human) = CSNK1G3 (human) (UniProt Q9Y6M4)
STK11 (human) = STK11 (human) (UniProt Q15831)
STK11 (human), sequence (Q15831 whole entry, looked up): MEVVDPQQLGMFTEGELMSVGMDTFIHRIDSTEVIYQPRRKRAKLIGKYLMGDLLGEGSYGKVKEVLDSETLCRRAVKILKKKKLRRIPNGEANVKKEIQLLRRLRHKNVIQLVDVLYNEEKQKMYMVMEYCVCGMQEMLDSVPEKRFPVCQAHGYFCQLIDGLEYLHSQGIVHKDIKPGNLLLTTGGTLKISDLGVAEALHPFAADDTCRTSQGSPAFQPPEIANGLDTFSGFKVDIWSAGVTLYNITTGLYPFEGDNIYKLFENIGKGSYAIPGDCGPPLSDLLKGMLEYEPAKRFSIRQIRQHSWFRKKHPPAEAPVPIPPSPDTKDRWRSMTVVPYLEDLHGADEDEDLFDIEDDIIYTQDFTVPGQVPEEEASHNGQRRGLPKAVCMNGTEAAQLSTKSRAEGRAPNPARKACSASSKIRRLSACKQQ

CDK11B (human) = CDK11B (human) (UniProt P21127)
RIPK2 (human) = RIPK2 (human) (UniProt O43353)

SMILES | kinase still bound, per cent of control (CDK16 (human)) [%] | kinase still bound, per cent of control (LYN (human)) [%] | kinase still bound, per cent of control [1] [%] | kinase still bound, per cent of control (RPS6KA5 KD1 (human)) [%] | kinase still bound, per cent of control (ICK (human)) [%] | kinase still bound, per cent of control (MTOR (human)) [%] | kinase still bound, per cent of control (PRKCH (human)) [%] | kinase still bound, per cent of control (PAK1 (human)) [%] | kinase still bound, per cent of control (CAMKK2 (human)) [%] | kinase still bound, per cent of control (PAK7 (human)) [%] | kinase still bound, per cent of control (AKT3 (human)) [%] | kinase still bound, per cent of control (PAK3 (human)) [%] | kinase still bound, per cent of control (NLK (human)) [%] | kinase still bound, per cent of control (RPS6KA3 KD1 (human)) [%] | kinase still bound, per cent of control (ACVR1 (human)) [%] | kinase still bound, per cent of control (CDC42BPG (human)) [%] | kinase still bound, per cent of control (EGFR (human)) [%] | kinase still bound, per cent of control (RPS6KA2 KD2 (human)) [%] | kinase still bound, per cent of control (PRKACB (human)) [%] | kinase still bound, per cent of control (IRAK1 (human)) [%] | other results
NC(=O)Nc1cc(-c2cccc(F)c2)sc1C(=O)N[C@@H]1CCCNC1 | 79 | 0.65 | 2.4 | 49 | 100 | 72 | 1.4 | 1.2 | 2.9 | 0 | 100 | 0.5 | 81 | 0.95 | 4 | 72 | 0.25 | 1.9 | 1.8 | 0 | kinase still bound, per cent of control (RPS6KA4 KD1 (human)): 0.2%; kinase still bound, per cent of control (CSK (human)): 0.05%; kinase still bound, per cent of control [2]: 0%; kinase still bound, per cent of control (ROS1 (human)): 2%; kinase still bound, per cent of control (CHUK (human)): 0%; kinase still bound, per cent of control (PHKG2 (human)): 1.6%; kinase still bound, per cent of control (RIOK2 (human)): 48%; kinase still bound, per cent of control (MET (human)): 3.1%; kinase still bound, per cent of control (ULK3 (human)): 0%; kinase still bound, per cent of control (EPHA7 (human)): 0.1%; kinase still bound, per cent of control (PLK4 (human)): 0%; kinase still bound, per cent of control (PIP4K2B (human)): 0.2%; kinase still bound, per cent of control (WEE2 (human)): 91%; kinase still bound, per cent of control (TNIK (human)): 0.1%; kinase still bound, per cent of control (TBK1 (human)): 4.8%; kinase still bound, per cent of control (MAP2K5 (human)): 0.05%; kinase still bound, per cent of control (CSNK1G3 (human)): 4.6%; kinase still bound, per cent of control (STK11 (human)): 4.8%; kinase still bound, per cent of control (CDK11B (human)): 100%; kinase still bound, per cent of control (RIPK2 (human)): 40%
COc1ccc(N(C(=O)Oc2c(C)cccc2C)c2ccnc(Nc3ccc(N4CCN(C)CC4)cc3)n2)c(OC)c1 | 98 | 0 | 1 | 100 | 100 | 100 | 35 | 6.8 | 56 | 82 | 100 | 4 | 3.9 | 37 | 0 | 0.45 | 0.4 | 78 | 2.5 | 19 | kinase still bound, per cent of control (RPS6KA4 KD1 (human)): 100%; kinase still bound, per cent of control (CSK (human)): 2.5%; kinase still bound, per cent of control [2]: 45%; kinase still bound, per cent of control (ROS1 (human)): 0.8%; kinase still bound, per cent of control (CHUK (human)): 92%; kinase still bound, per cent of control (PHKG2 (human)): 100%; kinase still bound, per cent of control (RIOK2 (human)): 83%; kinase still bound, per cent of control (MET (human)): 3.9%; kinase still bound, per cent of control (ULK3 (human)): 59%; kinase still bound, per cent of control (EPHA7 (human)): 26%; kinase still bound, per cent of control (PLK4 (human)): 37%; kinase still bound, per cent of control (PIP4K2B (human)): 5.4%; kinase still bound, per cent of control (WEE2 (human)): 100%; kinase still bound, per cent of control (TNIK (human)): 37%; kinase still bound, per cent of control (TBK1 (human)): 74%; kinase still bound, per cent of control (MAP2K5 (human)): 0.55%; kinase still bound, per cent of control (CSNK1G3 (human)): 87%; kinase still bound, per cent of control (STK11 (human)): 60%; kinase still bound, per cent of control (CDK11B (human)): 58%; kinase still bound, per cent of control (RIPK2 (human)): 0%
